Data published in patent publication US12421212B2, “Substituted benzenecarboxamides as IL-17A modulators” (DiCE Alpha, Inc., priority 2019, dated 2025).
Like-named read-outs stand apart in the source and are kept apart here.

Target: T1, IL-17A/A (Homo sapiens, UniProt Q16552)
T1 construct: purchased Genscript Z03228
T1 sequence (Q16552 24-155): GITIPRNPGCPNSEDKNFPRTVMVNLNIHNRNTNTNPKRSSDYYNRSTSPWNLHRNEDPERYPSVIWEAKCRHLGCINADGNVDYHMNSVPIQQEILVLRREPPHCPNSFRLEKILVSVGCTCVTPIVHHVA
Assay: IL-17A/A HEK-Blue Cell Assay
Format: cell-based

[1] = HEK-Blue IL-17A reporter cell line, SEAP readout at A630, 20 hours incubation with IL-17A/A, top concentration 10 uM, 1 uM or 0.3 uM
[2] = HEK-Blue IL-17A reporter cell line, SEAP readout at A630, 20 hours incubation with IL-17A/A, top concentration 10 uM, 1 uM or 0.3 uM, read-out: IL-17A/A inhibition (pIC50) (converted)

IC50 [2] [nM]	Compound	also measured
–	CCn1nccc1C(=O)N[C@H](C(=O)Nc1ccc([C@H](C)[C@@H](NC(=O)c2cnsc2)C(=O)N2CCN(C)CC2)cc1F)[C@H]1CC[C@H](C)CC1 [Compound 487]	IL-17A/A inhibition (pIC50) [1]: B (8>B≥7 as B)
10 to 100	CCC(=O)N[C@@H](C(=O)N1CCN(C)CC1)[C@@H](C)c1ccc(NC(=O)[C@@H](NC(=O)c2ccnn2CC)[C@H]2CC[C@H](C)CC2)cc1 [Compound 299]	–
10 to 100	CCC(=O)N[C@@H](C(=O)N1CCN(C)CC1)[C@@H](C)c1ccc(NC(=O)[C@@H](NC(=O)C(F)(F)C2CCCCC2)C2CCCCC2)c(F)c1 [Compound 252]	–
10 to 100	COc1ccc(C(F)(F)C(=O)N[C@H](C(=O)Nc2ccc(C[C@@H](NC(=O)c3cnns3)C(=O)N3CCN(C)CC3)cc2F)C2CCCCC2)cn1 [Compound 323]	–
< 10	CCc1nonc1C(=O)N[C@H](C(=O)Nc1ccc([C@H](C)C(NC(=O)C(C)F)C(=O)N2CCN(C)[C@@H](C)C2)cc1F)[C@H]1CC[C@H](C)CC1 (single isomer, unassigned) [Compound 594]	–
< 10	CC(C)n1nccc1C(=O)N[C@@H](C(=O)N1CCN(C)CC1)[C@@H](C)c1ccc(NC(=O)[C@@H](NC(=O)c2ccnn2C(C)C)[C@H]2CC[C@H](C)CC2)c(F)c1 [Compound 330]	–
10 to 100	CCC(=O)N[C@@H](C(=O)N1CCN(C)CC1)[C@@H](C)c1ccc(NC(=O)[C@@H](NC(=O)C(F)(F)c2ccc(OC)nc2)C2CCC(F)(F)CC2)c(F)c1 [Compound 220]	–
100 to 10000	CCC(=O)N[C@H](Cc1ccc(NC(=O)[C@@H](NC(=O)c2coc3ccc(OC)cc23)C2CCCCC2)c(F)c1)C(=O)N1CCN(C)CC1 [Compound 671]	–
–	CCC(=O)N[C@H](Cc1ccc(NC(=O)[C@H](Cc2cc(C)cc(C)c2)NC(=O)c2ccnn2CC)c(F)c1)C(=O)N1CCN(C)CC1 [Compound 727]	IL-17A/A inhibition (pIC50) [1]: X2b (compounds were evaluated up to 1 uM and inhibited activity at 1 uM by less than 20%)
100 to 10000	CCC(=O)N[C@H](Cc1ccc(NC(=O)[C@@H](NC(=O)c2ccnn2CC(C)C)C2CCCCC2)c(F)c1)C(=O)N1CCN(C)CC1 [Compound 646]	–
< 10	C[C@@H](c1ccc(NC(=O)[C@@H](NC(=O)C(F)(F)c2cccc(C#N)c2)C2CCCCC2)c(F)c1)[C@@H](NC(=O)NC1CC1)C(=O)N1CCN(C)CC1 [Compound 316]	–
10 to 100	CCC(=O)N[C@@H](C(=O)N1CCN(C)CC1)[C@@H](C)c1ccc(NC(=O)[C@@H](NC(=O)c2coc3ccncc23)C2CCCCC2)c(F)c1 [Compound 247]	–
10 to 100	COc1nonc1C(=O)N[C@H](C(=O)Nc1ccc([C@H](C)[C@@H](NC(=O)c2cnns2)C(=O)N2CCN(C)CC2)cc1F)[C@H]1CC[C@H](C)CC1 [Compound 552]	–
–	CCC(=O)N[C@@H](C(=O)N1CCN(C)CC1)[C@@H](C)c1ccc(NC(=O)C(NC(=O)c2nonc2CC)C(C)C2CCC(F)(F)CC2)c(F)c1 (single isomer, unassigned) [Compound 588]	IL-17A/A inhibition (pIC50) [1]: X3b (compounds were evaluated up to 0.3 uM and inhibited activity at 0.3 uM by less than 20%)
10 to 100	CCC(=O)N[C@@H](C(=O)N1CCN(C)CC1)[C@@H](C)c1ccc(NC(=O)[C@@H](NC(=O)c2conc2C2(C)COC2)[C@H]2CC[C@H](C)CC2)c(F)c1 [Compound 397]	–
< 10	CCC(=O)N[C@@H](C(=O)N1CCN(Cc2ccccc2)CC1)[C@@H](C)c1ccc(NC(=O)[C@@H](NC(=O)c2ccnn2CC)C2CCCCC2)c(F)c1 [Compound 366]	–
100 to 10000	CCC(=O)N[C@H](Cc1ccc(NC(=O)[C@@H](NC(=O)c2ccnn2CC)C2CCCCC2)c(F)c1)C(=O)N1CCNC2(CC2)C1 [Compound 690]	–
< 10	CCC(=O)N[C@@H](C(=O)N1CCN(CC)[C@H](C)C1)[C@@H](C)c1ccc(NC(=O)[C@@H](NC(=O)c2ccnn2CC)[C@H]2CC[C@H](C)CC2)c(F)c1 [Compound 426]	–
10 to 100	CCC(=O)N[C@@H](C(=O)N1CCN(C)CC1)[C@@H](C)c1ccc(NC(=O)[C@@H](NC(=O)C(F)(F)c2cncc(OC)c2)C2CCCCC2)c(F)c1 [Compound 246]	–
10 to 100	C[C@@H](c1ccc(NC(=O)[C@@H](NC(=O)c2ccnn2C2COC2)[C@H]2CC[C@H](C)CC2)c(F)c1)[C@@H](NC(=O)c1cnns1)C(=O)N1CCN(C)CC1 [Compound 546]	–
10 to 100	CCC(=O)N[C@@H](C(=O)N1CCN(C)CC1)[C@@H](C)c1ccc(NC(=O)[C@@H](NC(=O)c2csc3ccccc23)C2CCCCC2)c(F)c1 [Compound 248]	–
–	CCC(=O)N[C@@H](C(=O)N1CCN(C)CC1)[C@@H](C)c1ccc(NC(=O)C(NC(=O)c2ccnn2CC)C(C)C2CCC(C)CC2)c(F)c1 (single isomer, unassigned) [Compound 585]	IL-17A/A inhibition (pIC50) [1]: X2a (compounds were evaluated up to 1 uM and did not inhibit activity by >80%, however they showed some activity at 1 uM (less than 80% and more than 20%))
< 10	CCc1nonc1C(=O)N[C@H](C(=O)Nc1ccc([C@H](C)C(NC(=O)C(F)C2CC2)C(=O)N2CCN(C)[C@H](C)C2)cc1F)[C@H]1CC[C@H](C)CC1 (single isomer, unassigned) [Compound 600]	–

IC50 [2] [nM]	Compound	also measured
–	CCn1nccc1C(=O)N[C@H](C(=O)Nc1ccc(C[C@@H](NC(=O)c2cn(C)cn2)C(=O)N2CCN(C)CC2)cc1F)C1CCCCC1 [Compound 702]	IL-17A/A inhibition (pIC50) [1]: X2b (compounds were evaluated up to 1 uM and inhibited activity at 1 uM by less than 20%)
10 to 100	CNC(=O)N[C@@H](C(=O)N1CCN(C)CC1)[C@@H](C)c1ccc(NC(=O)[C@@H](NC(=O)C(F)(F)c2cccc(C#N)c2)C2CCCCC2)c(F)c1 [Compound 317]	–
100 to 10000	CCC(=O)N[C@H](Cc1ccc(NC(=O)[C@@H](NC(=O)c2ccnn2CC)C2CCCCC2)c(F)c1)C(=O)N1CCN(C(C)C)CC1 [Compound 651]	–
–	CCC(=O)N[C@@H](C(=O)N1CCN(C)CC1)[C@@H](C)c1ccc(NC(=O)C(NC(=O)c2ccnn2CC)C(C)C2CCC(F)(F)CC2)c(F)c1 (single isomer, unassigned) [Compound 589]	IL-17A/A inhibition (pIC50) [1]: X3b (compounds were evaluated up to 0.3 uM and inhibited activity at 0.3 uM by less than 20%)
100 to 10000	CCC(=O)N[C@H](Cc1ccc(NC(=O)[C@@H](NC(=O)c2ccnn2CC)C2CCCCC2)c(F)c1)C(=O)N1CCN(C2COC2)CC1 [Compound 770]	–
10 to 100	CCc1nonc1C(=O)N[C@H](C(=O)Nc1ccc([C@H](C)[C@@H](NC(=O)[C@H](C)CC(=O)O)C(=O)N2CCN(C)CC2)cc1F)[C@H]1CC[C@H](C)CC1 [Compound 493]	–
< 10	CCn1nccc1C(=O)N[C@H](C(=O)Nc1ccc([C@H](C)[C@@H](NC(=O)c2cnns2)C(=O)N2CCN(C)CC2)cc1F)C1CCCCCC1 [Compound 337]	–
< 10	CCn1nccc1C(=O)N[C@H](C(=O)Nc1ccc([C@H](C)[C@@H](NC(=O)c2cnns2)C(=O)N2CCC(C)(O)CC2)cc1F)[C@H]1CC[C@H](C)CC1 [Compound 440]	–
–	CCC(=O)N[C@@H](C(=O)N1CC(n2ccnc2)C1)[C@@H](C)c1ccc(NC(=O)[C@@H](NC(=O)c2nonc2CC)[C@H]2CC[C@H](C)CC2)c(F)c1 [Compound 580]	IL-17A/A inhibition (pIC50) [1]: X3a (compounds were evaluated up to 0.3 uM and did not inhibit activity by >80%, however they showed some activity at 0.3 uM (less than 80% and more than 20%))
100 to 10000	CCC(=O)N[C@H](Cc1ccc(NC(=O)[C@@H](NC(=O)c2ccnn2CC)[C@H]2CC[C@H](C)CC2)c(F)c1)C(=O)N1CCN(C)CC1 [Compound 627]	–
10 to 100	CCC(=O)N[C@@H](C(=O)N1CCC(O)CC1)[C@@H](C)c1ccc(NC(=O)[C@@H](NC(=O)c2cnn(C3CCCC3)c2)[C@H]2CC[C@H](C)CC2)c(F)c1 [Compound 531]	–
< 10	C[C@@H](c1ccc(NC(=O)[C@@H](NC(=O)C(F)(F)c2cccc(C#N)c2)C2CCCCCC2)c(F)c1)[C@@H](NC(=O)c1cnns1)C(=O)N1CCN(C)CC1 [Compound 391]	–
< 10	CCC(=O)N[C@@H](C(=O)N1CCN(C)CC1)[C@@H](C)c1ccc(NC(=O)[C@@H](NC(=O)C(F)(F)c2cnn(CC)c2)C2CCCCCC2)c(F)c1 [Compound 267]	–
–	CCC(=O)N[C@@H](C(=O)N1CCN(C)CC1)[C@@H](C)c1ccc(NC(=O)C(NC(=O)c2ccnn2CC)C(C)C2CCC(F)(F)CC2)c(F)c1 (single isomer, unassigned) [Compound 591]	IL-17A/A inhibition (pIC50) [1]: X3b (compounds were evaluated up to 0.3 uM and inhibited activity at 0.3 uM by less than 20%)
10 to 100	CCC(=O)N[C@@H](C(=O)N1CCN(C)CC1)[C@@H](C)c1ccc(NC(=O)C(NC(=O)C(F)(F)c2cccc(C#N)c2)C2CCCC2)c(F)c1 (stereo partly drawn) [Compound 292]	–
100 to 10000	CCC(=O)N[C@@H](C(=O)O)[C@@H](C)c1ccc(NC(=O)[C@@H](NC(=O)c2ccnn2CC)C2CCCCCC2)c(F)c1 [Compound 768]	–
10 to 100	CCC(=O)N[C@@H](C(=O)N1CC(N(C)C)C1)[C@@H](C)c1ccc(NC(=O)[C@@H](NC(=O)c2ccnn2CC)C2CCCCCC2)c(F)c1 [Compound 356]	–
10 to 100	CCC(=O)N[C@@H](C(=O)N1CCN(C)CC1)[C@@H](C)c1ccc(NC(=O)C(NC(=O)c2ccnn2CC)[C@@H](C)c2ccccc2)c(F)c1 (stereo partly drawn) [Compound 289]	–
< 10	CCC(=O)N[C@@H](C(=O)N1CCN(C)CC1)[C@@H](C)c1ccc(NC(=O)C(NC(=O)c2nonc2CC)C(CC)c2ccc(Cl)cc2)c(F)c1 (single isomer, unassigned) [Compound 565]	–
10 to 100	CCC(=O)N[C@@H](C(=O)N1CCN(C)CC1)[C@@H](CC)c1ccc(NC(=O)[C@@H](NC(=O)c2ccnn2CC)C2CCCCCC2)cc1 [Compound 319]	–
100 to 10000	CCn1nccc1C(=O)N[C@H](C(=O)Nc1ccc([C@H](C)[C@@H](NC(=O)NC)C(=O)N2CCN(C)CC2)cc1F)C1CCCCC1 [Compound 636]	–
–	CCc1nonc1C(=O)N[C@H](C(=O)Nc1ccc([C@H](C)[C@@H](NC(=O)CF)C(=O)N2CCN(C)[C@@H](C)C2)cc1F)[C@H]1CC[C@H](C)CC1 [Compound 510]	IC50: 10 to 100 nM
